Test results reported in ChEMBL document CHEMBL1142809, “SAR studies of 2-arylthiazolidine-4-carboxylic acid amides: a novel class of cytotoxic agents for prostate cancer” (Bioorg Med Chem Lett, 2005).

What was measured:
Assay type in all cases: functional, cell-based
[1] = test system: DU-145; assay: Antiproliferative activity against human prostate cancer DU-145 cell line by sulforhodamine B assay
[2] = test system: PC-3; assay: Antiproliferative activity against human prostate cancer PC-3 cell line by sulforhodamine B assay
[3] = Antiproliferative activity against human prostate cancer TSU-Pr1 cell line by sulforhodamine B assay
[4] = Antiproliferative activity against human prostate cancer PPC-1 cell line by sulforhodamine B assay
[5] = test system: LNCaP; assay: Antiproliferative activity against human prostate cancer LNCaP cell line by sulforhodamine B assay

Row | SMILES | IC50 [1] [µM] | IC50 [2] [µM] | IC50 [3] [µM] | IC50 [4] [µM] | IC50 [5] [µM]
1 | CCCCCCCCCCCCCCCCCCNC(=O)[C@@H]1CSC(c2ccc(OCC)cc2)N1 (stereo not given in full) | > 20 | > 20 | > 20 | 4.4 | 6.1
2 | CCCCCCCCCCCCCCCCCCNC(=O)[C@H]1NC(c2ccc(N(C)C)cc2)SC1(C)C (stereo not given in full) | > 20 | > 20 | > 20 | > 20 | > 20
3 | CCCCCCCCCCCCCCCCCCNC(=O)[C@@H]1CSC(c2cccc(O)c2)N1 (stereo not given in full) | 5.7 | 6.7 | 4 | 1.2 | 1.7
4 | CCCCCCCCCCCCCCCCCCNC(=O)[C@@H]1CSC(c2c(OC)cc(OC)cc2OC)N1 (stereo not given in full) | 7.3 | 10.6 | 6.1 | 0.83 | 2.4
5 | CCCCCCCCCCCCCCCCCCNC(=O)[C@@H]1CSC(c2cc(OC)c(OC)c(OC)c2)N1 (stereo not given in full) | 3.9 | 4 | 2.4 | 0.48 | 0.82
6 | CCCCCCCCCCCCCCCCCCNC(=O)[C@H]1NC(c2cc(OC)c(OC)c(OC)c2)SC1(C)C (stereo not given in full) | > 20 | > 20 | > 20 | 18.8 | > 20
7 | CCCCCCCCN(CCCCCCCC)C(=O)[C@@H]1CSC(c2cc(OC)c(OC)c(OC)c2)N1 (stereo not given in full) | > 20 | > 20 | > 20 | 14.1 | 8.7
8 | CCCCCCCCCCCCCCCCCCNC(=O)[C@@H]1CSC(c2ccc(N(C)C)cc2)N1 (stereo not given in full) | 5.3 | 6 | 3 | 1.1 | 1.6
9 | CCCCCCCCCCCCCCCCCCNC(=O)[C@@H]1CSC(c2ccc(O)cc2)N1 (stereo not given in full) | 3.1 | 5.3 | 3 | 0.82 | 1.6
10 | CCCCCCCCCCCCCCCCCCNC(=O)[C@@H]1CSC(c2ccc(OC)cc2)N1 (stereo not given in full) | 8.7 | 19 | 19.6 | 1.5 | 2.1
